# Results published in PubChem BioAssay (NCI).
# Where “and” joins values, the source holds several entries; their conditions need not be identical. Equal entries are not always repeated.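 1) Cells in 96-well plates. 2) Compound, 48 h, 5 concentrations. 3) Linear interpolation between surrounding doses. 4) Unreached endpoint = highest concentration. Here, GI50 denotes the concentration required for 50% inhibition of growth. TGI: total growth inhibition.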 Numbered stars: 1 amine (or outer) side, 2 acyl side, 3 side chain; on linkers, the order of the positions; unused ones are H or OH. *1 amine or outer side, *2 acyl side, *3 side chain or, on linkers, in order; H or OH if unused. Bridge positions count the residues as written; N and C are the ends. Where a SMILES comes first, the peptide text is derived from it. Square brackets hold non-standard residues; d marks the D form. Peptide text beside a SMILES is read from it. I, II: the chains in the order shown. [ ]: non-standard residue; d: D form. The star is where a group is joined. Actinocin(9to1) = Cc1c2oc3c(C)ccc(C(=O)[*:1])c3nc-2c(C(=O)[*:2])c(N)c1=O; X11 = C/C=C/CC(C)C(O)[C@H](N[*:1])C(=O)[*:2]; aThr = C[C@H](O)[C@H](N)C(=O)O; NMeV = CN[C@H](C(=O)O)C(C)C; Decanoyl = CCCCCCCCCC(=O)*; Leu(ol) = CC(C)C[C@H](N)CO; Aib = CC(C)(N)C(=O)O; Sar = CNCC(=O)O
# Test system: MDA-MB-468 breast
# Assay: NCI-60 cell line screen, 48 h
SMILES,GI50,TGI
CCc1ccc(SC2c3ccc(N(CC)CC)cc3Oc3nc(N)c(C#N)c(N)c32)cc1 (configuration not stated),1.58 µM,3.06 µM
CCN(CC)CC(O)c1cc(-c2ccc(Cl)cc2)nc2c(C)c(Cl)ccc12 (configuration not stated),1.89 µM,3.42 µM
Nc1nc(N)c2c(n1)CCC(S(=O)(=O)c1ccc3ccccc3c1)C2 (configuration not stated),2.25 µM,33 µM
NC1(C(=O)N[C@@H](CCO)c2ccc(Cl)cc2)CCN(c2ncnc3[nH]ccc23)CC1,0.128 µM and 0.162 µM,1.17 µM and 2.21 µM
CN1CCN(CCC=C2c3ccccc3Sc3ccc(S(=O)(=O)N(C)C)cc32)CC1,1.38 µM and 1.53 µM,2.97 µM and 4.26 µM
CCCCCCCCCCCCCCCCCC[S+](C)CC (configuration not stated),0.527 µM,2.66 µM
CN(C)CCCCNc1ccc(NCCCCN(C)C)c2c1C(=O)c1c(O)ccc(O)c1C2=O,13.7 µM,26.5 µM
CN1CCN(Cc2ccc(NC(=O)c3cncc(C#Cc4cnc5ccc(OCCCS(C)(=O)=O)nn45)c3)cc2C(F)(F)F)CC1,0.684 µM,1.68 µM
CC[C@@H](C)/C=C(C)/C=C/C(=O)c1c(O)c(-c2ccc(O)cc2)cn(OC2CC(=O)CCC(C)OC(=O)CC2O)c1=O (some centres not stated),0.239 µM,0.852 µM
COc1ncc(-c2ccc3nccc(C#CCCCCC(=O)NO)c3c2)cc1NS(=O)(=O)c1ccc(F)cc1F,0.0214 µM,0.116 µM
COc1cc(C2CC(c3cccc(Nc4ccnc5cc(Cl)ccc45)c3)=NN2c2ccccc2)cc(OC)c1OC (configuration not stated),20.1 µM,> 100 µM
CCCCCCCCCCCCCCCCCCOc1ccccc1COP(=O)(O)OOCC[N+](C)(C)C,0.493 µM,1.47 µM
COc1cc(N2CCC(N)CC2)ccc1Nc1ncc(Cl)c(-c2c[nH]c3ccccc23)n1,0.415 µM,1.74 µM
Fc1ccc(Nc2nc3nonc3nc2Nc2ccc(I)cc2)cc1,0.251 µM,0.79 µM
COc1cc(C(=O)NN=C2c3ccccc3-c3ccccc32)cc(OC)c1OC,3.47 µM,41.9 µM
COc1ccc(/C=C\c2cc(OC)c(OC)c(OC)c2)c(NS(=O)(=O)c2ccc(F)cc2)c1O,0.0692 µM,
COc1cc(C)[nH]c(=O)c1CNC(=O)c1c(C)n([C@H](C)C2CCN(CC(F)(F)F)CC2)c2ccccc12,24.9 µM,> 100 µM
CN1CCN(Cc2ccc(NC(=O)c3cncc(C#Cc4cnc5ccc(N)nn45)c3)cc2C(F)(F)F)CC1,0.852 µM,3.24 µM
COc1c(B(O)O)cccc1-c1nc2c(F)cc3n[nH]c(C)c3c2c2c1CCCC2,0.994 µM,4.12 µM
COCCn1c2c([n+](Cc3cnccn3)c1C)C(=O)c1ccccc1C2=O,< 0.01 µM,0.0141 µM
O=C1OCC2=C1C(c1cccc(Cl)c1)c1cc3c(cc1N2CCO)CCC3 (configuration not stated),0.0231 µM,0.84 µM
O=C1c2ccc3c4c(ccc(c24)C(=O)N1CCNCc1ccccc1)C(=O)N(CCNCc1ccccc1)C3=O,1.59 µM,3.1 µM
Cc1cc(C)c2c(c1)N(C)c1ncnc(-n3cnc4cc(C)ccc43)c1CC2C (configuration not stated),3.24 µM,27 µM
CC/C(=C(/c1ccc(OCCN(C)C)cc1)c1ccc(OC(=O)CCCCCCCCC(=O)c2c(C)[nH]c(/C=C3\N=C(c4ccc[nH]4)C=C3OC)c2C)cc1)c1ccccc1,3.62 µM,> 100 µM
C#CCNC(=O)CC[C@@H](C)[C@H]1CC[C@H]2[C@@H]3CC[C@@H]4CC(=O)CC[C@]4(C)[C@H]3CC[C@]12C,13.8 µM,45.4 µM

SMILES,GI50,TGI
Nc1c(C(=O)Nc2cccc(C(F)(F)F)c2)sc2nc3c(cc12)CCCCCC3,0.798 µM,3.32 µM
C=CC(=O)N1CCC[C@@H](n2nc(-c3ccc(Oc4ccccc4)cc3)c3c(N)ncnc32)C1,0.0674 µM,1.24 µM
CO/C(=C1/NC(=O)C(Cc2ccc(O)c(Br)c2)N(C)C(=O)C(C)NC(=O)CCC/C=C(\C)CCC(C)OC1=O)c1ccccc1 (configuration not stated),0.0217 µM,
CC(=O)N[C@@H](Cc1ccc(OP(=O)(O)O)cc1)C(=O)N[C@H]1CCC(=O)N2CCC[C@@H](C(=O)NC3CCc4ccccc43)N2C1=O (some centres not stated),> 25 µM,> 25 µM
CC(=O)Nc1cc2c3c(cccc3c1)-c1ccccc1-2,37.4 µM,> 100 µM
Nc1n[nH]c2ccc([C@@H]3Nc4ccc5cn[nH]c5c4[C@H]4C5CCC(C5)[C@@H]34)cc12 (some centres not stated),0.33 µM,5.04 µM
CN1CCN(Cc2ccc(NC(=O)c3cncc(C#Cc4cnc5ccc(N6CCOCC6)nn45)c3)cc2C(F)(F)F)CC1,0.0735 µM,0.165 µM
"Cc1c2oc3c(C)ccc(C(=O)N[C@@H]4C(=O)N[C@H](C(C)C)C(=O)N5CCC[C@H]5C(=O)N(C)CC(=O)N(C)[C@@H](C(C)C)C(=O)O[C@H]4C)c3nc-2c(C(=O)N[C@@H]2C(=O)N[C@H](C(C)C)C(=O)N3CCC[C@H]3C(=O)N(C)CC(=O)N(C)[C@@H](C(C)C)C(=O)O[C@H]2C)c(N)c1=O (I: [aThr][dV]P[Sar][NMeV] / II: [aThr][dV]P[Sar][NMeV]; ester I:1-I:C, II:1-II:C; linker I:N-II:N via Actinocin(9to1))",,0.0485 µM and 0.0157 µM
Cc1cc(-c2cc(OC(=O)c3ccccc3)ccc2Cl)cc2nnc(Nc3ccc(OCCN4CCCC4)cc3)nc12,1.32 µM,2.91 µM
C[C@]12CC[C@H]3[C@@H](CC[C@]4(O)C[C@@H](O[C@@H]5O[C@H](CO)[C@@H](O[C@@H]6OC[C@@H](O)[C@H](O)[C@H]6O)[C@H](O)[C@H]5O)CC[C@]34C=O)[C@@]1(O)CC[C@@H]2C1=CC(=O)OC1,10 µM,32.3 µM
C/C=C/CC(C)C(O)[C@H](NC(=O)[C@@H]1CCCN1C(=O)C(C)(C)NC(=O)CCCCCCCCC)C(=O)NC(C)(C)C(=O)N[C@@H](CCC(N)=O)C(=O)N[C@H](CCC(N)=O)C(=O)NC(C)(C)C(=O)NC(C)(C)C(=O)N[C@@H](CCC(N)=O)C(=O)N[C@H](CC(C)C)C(=O)N[C@H](CO)CC(C)C (stereo partly drawn) (Decanoyl-[Aib]P[X11][Aib]Q[dQ][Aib][Aib]Q[dL][Leu(ol)]),1.49 µM,2.98 µM
COC(=O)c1c2c(c(C)[n+]([O-])c1C)C(=O)C(NCc1ccc(O)cc1)=CC2=O,0.402 µM,1.74 µM
COc1cc(N(CCCl)CCCl)ccc1/C=N\NC(=O)c1cccnc1,1.28 µM,6.83 µM
CCN1C(=O)N(CC)C2SC(N/N=C/c3cccs3)=NC21 (configuration not stated),0.253 µM,16.6 µM
Cc1cnc(-c2ccc(-c3ccc(NC(=O)Nc4c(F)cc(F)cc4F)cc3F)c3c2C(=O)NC3)[nH]1,1.48 µM,3.86 µM
CCCCOC(=O)c1c(C)[nH]c(/C=C2\N=C(c3ccc[nH]3)C=C2OC)c1C,0.451 µM,2.02 µM
Nc1ncnc2c1ccn2-c1cccc(NC(=O)c2ccc(N3CCOCC3)c(C(F)(F)F)c2)c1,2.13 µM,7.07 µM
CC(=O)ON=C1C=CC(=C(C#N)c2ccccc2)C=C1,0.42 µM,12.5 µM
COC(=O)[C@]12CC[C@@H](C)[C@H](C)[C@@H]1C1=CC[C@@H]3[C@@](C)(CC#N)C4=C(C[C@@]3(C)[C@]1(C)CC2)OC[C@]4(C)C=O,10.7 µM,42.3 µM
CN(C)C1CN(C(=O)c2cc(-c3ccc4ncnc(N5CCc6cc(F)c(Cl)cc65)c4c3)cnc2N)C1,0.254 µM,1.07 µM
COC(=O)Nc1nc2ccc(C(=O)c3ccc(F)cc3)cc2[nH]1,0.812 µM,> 100 µM
Cn1c(=O)c(Oc2ccc(F)cc2F)cc2cnc(NCC(C)(C)O)nc21,> 25 µM,> 25 µM
O=C(Nc1cccc(-n2cc(-c3ccncc3)c(-c3ccc(Cl)c(O)c3)n2)c1)Nc1ccc(Cl)c(Cl)c1,0.729 µM,4.25 µM
CC[C@@]1(O)C(=O)OCc2c1cc1n(c2=O)Cc2c-1nc1cc(F)c(C)c3c1c2[C@@H](NC(=O)CO)CC3,< 0.01 µM,< 0.01 µM
O=C(/C=C/C=C/c1ccc2c(c1)OCO2)N/N=C\c1ccc(O)cc1O,1.66 µM,5.73 µM
